This assay in a line: Determination of the Kd values of ionophores from UV-absorption Ca^2+ titration curves. The assay is classed as binding. As to conditions: aqueous solution, 30 mmol/l tris/HCl buffer, CO2-free, pH 7.4; absorption at 248 nm; 0.00001 to 0.5 mol/l Ca^2+; calculated from found pKd. Here is the method: wherein, at a given ionic strength and temperature, the dissociation constant (Kd) is given by Equation 2, [formula]
The PKd value (Equation 3) is the negative common logarithm of the dissociation constant:
The absorption values in dependence on the Ca^2+ concentration were measured using a commercial photometer, at an absorption wavelength of 248 nm. The resulting titration curves were normalized to the value Amax =1 at a Ca^2+ concentration of 0.00001 mol/l using Equation 4 (see below).
The Kd values of the ionophores were determined from the measured absorption values of the Ca^2+ -titration curves according to Equation 3 (see above) and Equation 4 [formula]
wherein Ax is the normalized absorption value at the given Ca^2+ concentration, Amax is the absorption value at 0.00001 mol/l Ca^2+ and pKd has the meaning indicated in Equation 3.
They were determined from the found pKd values by means of Equation 3.

Each structure is given as a SMILES string.

A word on the Kd: it is a measure of binding affinity in units of concentration.

Turning to `COCCN(CCN(CC(=O)O)CC(=O)O)c1ccccc1OC` [Ionophore X2, Potassium N-[2-(N'-methoxyethyl-N'-(2-methoxyphenyl)aminoethyl)]-imino-N,N-diacetate], the Kd was 0.33 mM.

On to `CCOCCN(CCN(CC(=O)O)CC(=O)O)c1ccccc1OC` [Ionophore X3, Potassium N-[2-(N'-ethoxyethyl-N'-(2-methoxyphenyl)aminoethyl)]-imino-N,N-diacetate], for which the Kd is 1.04 mM.

For the compound `CCCCN(CCN(CC(=O)O)CC(=O)O)c1ccccc1OC` [Ionophore X4, Potassium N-[2-(N'-butyl-N'-(2-methoxyphenyl)aminoethyl)]-imino-N,N-diacetate], the Kd is 9.14 mM.

Turning to `COc1ccccc1N(CCOc1ccccc1)CCN(CC(=O)O)CC(=O)O` [Ionophore X5, Potassium N-[2-(N'-phenoxyethyl-N'-(2-methoxyphenyl)aminoethyl)]-imino-N,N-diacetate], the Kd was 6.96 mM.

On to `COc1ccccc1N(CCOCC(=O)O)CCOCC(=O)O` [Ionophore X6, Potassium-o-anisidine-N,N-diethoxyacetate], for which the Kd was 0.2 mM.

Turning to `CCOc1ccccc1N(CCOCC(=O)O)CCOCC(=O)O` [Ionophore X7, Potassium o-phenetidine-N,N-diethoxyacetate], the equilibrium dissociation constant (Kd) was 1.09 mM.

As for `COc1ccc(Cl)cc1N(CCOCC(=O)O)CCOCC(=O)O` [Ionophore X8, Potassium 5-chloro-o-anisidine-N,N-diethoxyacetate], the dissociation constant Kd is 0.72 mM.

`COCCN(CCOC)c1ccccc1OCCN(CC(=O)O)CC(=O)O` [Ionophore X9, Potassium N-[2-(N',N'-dimethoxyethyl)aminophenoxyethyl]imino-N,N-diacetate]: the dissociation constant (Kd) was 6.16 mM.

The record behind these values is US6171866A, “Luminescence indicator for determining calcium ions” (AVL Medical Instruments, priority 1998, dated 2001).
